# ChEMBL document CHEMBL5550117, “Dual-target inhibitors based on ERα: Novel therapeutic approaches for endocrine resistant breast cancer” (Eur J Med Chem, 2024)
# pIC50: −log10 of the molar value.
# Tests used:
# [1] = molecular target: T1, Protein deacetylase HDAC6 (Homo sapiens, UniProt Q9UBN7); assay: Inhibition of HDAC6 (unknown origin)
# T1 sequence (Q9UBN7 whole entry): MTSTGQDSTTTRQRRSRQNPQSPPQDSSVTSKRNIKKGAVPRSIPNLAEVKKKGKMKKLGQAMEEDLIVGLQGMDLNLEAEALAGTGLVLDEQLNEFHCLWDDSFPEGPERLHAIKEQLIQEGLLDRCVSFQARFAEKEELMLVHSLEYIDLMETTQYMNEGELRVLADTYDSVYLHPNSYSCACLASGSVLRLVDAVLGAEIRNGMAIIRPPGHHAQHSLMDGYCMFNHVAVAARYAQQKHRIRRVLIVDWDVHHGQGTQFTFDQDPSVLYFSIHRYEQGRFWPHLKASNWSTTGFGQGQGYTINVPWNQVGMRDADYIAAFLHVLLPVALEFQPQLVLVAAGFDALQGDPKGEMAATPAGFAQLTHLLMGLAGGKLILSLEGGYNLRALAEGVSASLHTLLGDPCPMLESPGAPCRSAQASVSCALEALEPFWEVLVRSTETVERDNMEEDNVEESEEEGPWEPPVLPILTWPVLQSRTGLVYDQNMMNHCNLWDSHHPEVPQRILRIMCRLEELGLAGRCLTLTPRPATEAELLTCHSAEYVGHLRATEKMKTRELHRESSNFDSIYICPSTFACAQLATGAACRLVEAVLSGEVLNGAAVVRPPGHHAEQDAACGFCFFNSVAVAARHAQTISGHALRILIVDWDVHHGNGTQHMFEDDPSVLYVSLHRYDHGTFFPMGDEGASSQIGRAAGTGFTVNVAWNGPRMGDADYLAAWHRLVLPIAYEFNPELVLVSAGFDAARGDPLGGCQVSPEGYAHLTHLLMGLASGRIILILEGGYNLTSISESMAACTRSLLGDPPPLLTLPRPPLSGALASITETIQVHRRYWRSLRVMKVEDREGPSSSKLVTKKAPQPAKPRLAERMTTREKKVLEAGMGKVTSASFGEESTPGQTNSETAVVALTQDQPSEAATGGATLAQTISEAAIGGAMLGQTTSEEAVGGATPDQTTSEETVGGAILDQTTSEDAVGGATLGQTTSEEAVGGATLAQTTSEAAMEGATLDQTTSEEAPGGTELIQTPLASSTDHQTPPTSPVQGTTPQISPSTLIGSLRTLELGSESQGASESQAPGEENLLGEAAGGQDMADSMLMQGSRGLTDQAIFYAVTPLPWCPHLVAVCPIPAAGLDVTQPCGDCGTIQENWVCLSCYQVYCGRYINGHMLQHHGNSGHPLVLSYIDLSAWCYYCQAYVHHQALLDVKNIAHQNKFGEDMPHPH
# [2] = Inhibition of NF-kappaB pathway in human MCF7 cells assessed as reduction in TNFalpha level by RT-PCR analysis
# MCF7 [3] = assay: Antiproliferative activity against human MCF7 cells assessed as reduction in cell viability incubated for 48 hrs by MTT assay; details: MCF7, 48 h
# MCF7 [4] = assay: Anti-clonogenic activity in human MCF7 cells assessed as reduction of colony formation incubated for 2 weeks by crystal violet staining based assay; details: MCF7, 336 h
pIC50 [1],pIC50 [2],pIC50 (MCF7 [3]),pIC50 (MCF7 [4]),SMILES
5.66,,,,CC/C(=C(\c1ccccc1)c1ccc(OCCN(C)Cc2ccc(NC(=O)CCCCCCC(=O)NO)cc2)cc1)c1ccccc1
,5.40,6.30,5.70,CCOC(=O)/C=C/C(=O)NCCOc1ccc(C(=O)c2c(-c3ccc(O)cc3)sc3cc(O)ccc23)cc1
